Where a SMILES comes first, the peptide text is derived from it. [ ]: non-standard residue; d: D form. pGlu = O=C1CC[C@@H](C(=O)O)N1

One assay has as its system Male CD Charles River rats. In words: Hypotensive effect in anesthetized rats (carotid pressure after intravenous injection). The class given is in vivo, rat. To be noted: dose of 2 mg/kg, injected in the right femoral vein, in 0.9% NaCl, urethane-anesthetized rats. The procedure:
After incannulation of the trachea, the right carotid was isolated and connected by a cannula to a pressure measurement device. The isolated left carotid was used to record the flow by means of an electromagnetic flussimeter. Other parameters recorded were: dp/dt, ECG (electrocardiogram), BPM (beats per minute). All values were recorded on an 8 channel Hewlett Packard polygraph.
(§1) The tripeptides were dissolved in 0.9% NaCl and injected in the right femoral vein.
With `CCOC(=O)[C@H](Cc1c[nH]c2ccccc12)NC(=O)[C@H](CC(C)C)NC(=O)[C@@H]1CCC(=O)N1` [pGLU--LEU--TRP--OEt, pGLU-LEU-TRP-OEt] ([pGlu]-Leu-Trp-OEt), the “Δ on maximum (lowering of the maximum pressure)” value turned out to be 30 mm Hg and the “Δ on minimum (lowering of the minimum pressure)” value worked out at 20 mm Hg.
On the same counts, the results for `O=C1CC[C@@H](C(=O)N[C@@H](CO)C(=O)N[C@@H](Cc2c[nH]c3ccccc23)C(=O)O)N1` [pGLU--SER--TRP, pGLU-SER-TRP] ([pGlu]-Ser-Trp-OH) are 45 mm Hg and 35 mm Hg.
On the same counts, the results for `CCOC(=O)[C@H](Cc1c[nH]c2ccccc12)NC(=O)[C@@H](NC(=O)[C@@H]1CCC(=O)N1)[C@@H](C)CC` [pGLU--ILE--TRP--OEt] ([pGlu]-Ile-Trp-OEt) are 30 mm Hg and 25 mm Hg.
Turning to `N=C(N)NCCC[C@H](NC(=O)[C@@H]1CCC(=O)N1)C(=O)N[C@@H](Cc1c[nH]c2ccccc12)C(=O)O` [pGLU--ARG--TRP, pGLU-ARG-TRP] ([pGlu]-Arg-Trp-OH), the “Δ on maximum (lowering of the maximum pressure)” value stood at 25 mm Hg and the “Δ on minimum (lowering of the minimum pressure)” value came to 15 mm Hg.
The like results for `O=C(CNC(=O)[C@@H]1CCC(=O)N1)N[C@@H](Cc1c[nH]c2ccccc12)C(=O)O` [pGLU--GLY--TRP, p-GLU-GLY-TRP] ([pGlu]-Gly-Trp-OH) were, in that order, 25 mm Hg and 35 mm Hg.
The like results for `CC(C)C[C@H](NC(=O)[C@@H]1CCC(=O)N1)C(=O)N[C@@H](Cc1c[nH]c2ccccc12)C(=O)O` [pGLU--LEU--TRP, pGLU-LEU-TRP] ([pGlu]-Leu-Trp-OH) were, in that order, 30 mm Hg and 30 mm Hg.
For the molecule `NC(=O)C[C@H](NC(=O)[C@@H]1CCC(=O)N1)C(=O)N[C@@H](Cc1c[nH]c2ccccc12)C(=O)O` [pGLU--ASN--TRP, pGLU-ASN-TRP] ([pGlu]-Asn-Trp-OH), the “Δ on maximum (lowering of the maximum pressure)” value is 35 mm Hg and the “Δ on minimum (lowering of the minimum pressure)” value turned out to be 20 mm Hg.
`C[C@H](NC(=O)[C@@H]1CCC(=O)N1)C(=O)N[C@@H](Cc1c[nH]c2ccccc12)C(=O)O` [pGLU--ALA--TRP, pGLU-ALA-TRP] ([pGlu]-Ala-Trp-OH): the “Δ on maximum (lowering of the maximum pressure)” value is given as 10 mm Hg and the “Δ on minimum (lowering of the minimum pressure)” value came to 20 mm Hg.
On the same counts, the results for `NC(=O)CC[C@H](NC(=O)[C@@H]1CCC(=O)N1)C(=O)N[C@@H](Cc1c[nH]c2ccccc12)C(=O)O` [pGLU--GLN--TRP, pGLU-GLN-TRP] ([pGlu]-Gln-Trp-OH) are 20 mm Hg and 10 mm Hg.
On the same counts, the results for `O=C(O)CC[C@H](NC(=O)[C@@H]1CCC(=O)N1)C(=O)N[C@@H](Cc1c[nH]c2ccccc12)C(=O)O` [pGLU--GLU--TRP, pGLU-GLU-TRP] ([pGlu]-Glu-Trp-OH) are 20 mm Hg and 10 mm Hg.
On the same counts, the results for `NCCCC[C@H](NC(=O)[C@@H]1CCC(=O)N1)C(=O)N[C@@H](Cc1c[nH]c2ccccc12)C(=O)O` [pGLU--LYS--TRP, pGLU-LYS-TRP] ([pGlu]-Lys-Trp-OH) are 35 mm Hg and 25 mm Hg.
In the case of `O=C(O)C[C@H](NC(=O)[C@@H]1CCC(=O)N1)C(=O)N[C@@H](Cc1c[nH]c2ccccc12)C(=O)O` [pGLU--ASP--TRP, pGLU-ASP-TRP] ([pGlu]-Asp-Trp-OH), the “Δ on maximum (lowering of the maximum pressure)” value is 10 mm Hg and the “Δ on minimum (lowering of the minimum pressure)” value was 10 mm Hg.

A further assay concerns Male CD Charles River rats. In words: Potentiation of the hypotensive effect of adenosine. The following applies: 0.15 mg/kg in the vein. The class given is in vivo, rat. On the procedure: Male CD Charles River rats weighing 220-250 g were used, anesthetized with ethyl urethane (1.75 g/kg intraperitoneally). After incannulation of the trachea, the right carotid was isolated and connected by a cannula to a pressure measurement device. The isolated left carotid was used to record the flow by means of an electromagnetic flussimeter. Other parameters recorded were: dp/dt, ECG (electrocardiogram), BPM (beats per minute). All values were recorded on an 8 channel Hewlett Packard polygraph.
as §1
Any interference of synthesized peptides with the hemodynamic effects of adenosine would be shown using the method described. […] In this case the compound according to the invention was pGLU-GLU-TRP.
As for `Nc1ncnc2c1ncn2[C@@H]1O[C@H](CO)[C@@H](O)[C@H]1O` [adenosine, reference compound], the “Hemodynamic effect of adenosine alone” value is “transient hypotensive effect”.

Staying with this assay, now noted: tripeptide 0.1 mg/kg in the vein, 15 minutes before adenosine (0.15 mg/kg in the vein).
Take `NC(=O)C[C@H](NC(=O)[C@@H]1CCC(=O)N1)C(=O)N[C@@H](Cc1c[nH]c2ccccc12)C(=O)O` [pGLU--ASN--TRP, pGLU-ASN-TRP] ([pGlu]-Asn-Trp-OH): the “Effect on the hypotensive effect of adenosine” value was “potentiates and prolongs the hypotensive effect”.
`O=C(O)CC[C@H](NC(=O)[C@@H]1CCC(=O)N1)C(=O)N[C@@H](Cc1c[nH]c2ccccc12)C(=O)O` [pGLU--GLU--TRP, pGLU-GLU-TRP] ([pGlu]-Glu-Trp-OH): the “Effect on the hypotensive effect of adenosine” value is “potentiates and prolongs the hypotensive effect”.

The subject of another assay is female Swiss albino mice. In words: Analgesic activity, writhing test with 3% aqueous acetic acid. To be noted: adenosine 2 mg/kg intraperitoneally, 10 minutes before acetic acid; 20 minute observation. The class given is in vivo, mouse. The procedure: This activity was evaluated with the writhing test, using a 3% aqueous acetic acid solution as pain-causing agent, injected intraperitoneally (0.1 ml/10 g). The experiment was performed with 80 female Swiss albino mice weighing 18-24 g, fasting for three hours and divided into groups of 20 animals each: (1) controls, treated with 0.9% NaCl; (2) those treated with the test tripeptide (10 mg/kg intraperitoneally); (3) those treated with adenosine (2 mg/kg intraperitoneally); (4) those treated with the tripeptide (10 mg/kg intraperitoneally) and adenosine (2 mg/kg intraperitoneally). In groups 1 and 2 the substances were administered 40 minutes before the acetic acid; in group 3 the adenosine was administered 10 minutes before the acetic acid; in group 4 the adenosine was administered 30 minutes after the tripeptide and 10 minutes before the acetic acid. After the acetic acid innoculation, the animals were placed in groups of 5 in plastic cages, and observed for a 20 minute period. The number of contorsions the animals made during that period was recorded. Based on the mean reduction of the number of contorsions of the treated animals with respect to the controls, the analgesic action of the test substance was calculated.
`Nc1ncnc2c1ncn2[C@@H]1O[C@H](CO)[C@@H](O)[C@H]1O` [adenosine, reference compound]: the “Analgesic activity (mean reduction of number of contorsions vs controls)” value came to 20%.

The assay is the same for the next values; noted with them: tripeptide 10 mg/kg i.p. plus adenosine 2 mg/kg i.p. given 30 minutes after the tripeptide and 10 minutes before acetic acid.
In the case of `NC(=O)C[C@H](NC(=O)[C@@H]1CCC(=O)N1)C(=O)N[C@@H](Cc1c[nH]c2ccccc12)C(=O)O` [pGLU--ASN--TRP, pGLU-ASN-TRP] ([pGlu]-Asn-Trp-OH), the “Analgesic activity of tripeptide together with adenosine” value was “additive effect”.

Staying with this assay, now noted: tripeptide 10 mg/kg intraperitoneally, 40 minutes before acetic acid; 20 minute observation.
As to `NC(=O)C[C@H](NC(=O)[C@@H]1CCC(=O)N1)C(=O)N[C@@H](Cc1c[nH]c2ccccc12)C(=O)O` [pGLU--ASN--TRP, pGLU-ASN-TRP] ([pGlu]-Asn-Trp-OH), the “Analgesic activity (mean reduction of number of contorsions vs controls)” value is listed as 25%.

These data come from patent US4619916A, “Tripeptide compounds containing pyroglutamic acid and tryptophan, process for their production and therapeutic applications” (Polifarma S.p.A., priority 1984, dated 1986).
